Data: ChEMBL document CHEMBL1201862, “PubChem BioAssay data set” (2004)
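In this assay, cells in 96-well plates receive the compound at five concentrations for 48 hours. Endpoints are linearly interpolated between the surrounding concentrations. GI50: concentration for 50% inhibition of growth.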 The source made the active and inactive calls. No stated cut-off is given here; in the data, active = GI50 up to about 1.1 µM and inactive = higher.

Legend:
Experiment in all cases: NCI tumour cell line growth inhibition, 48 h
[1] = tested on: SNB-75
[2] = tested on: HCC 2998
[3] = tested on: NCI-H522
[4] = tested on: Malme-3M
[5] = tested on: MDA-MB-231
[6] = tested on: K562
[7] = tested on: HL-60
[8] = tested on: HCT-15
[9] = tested on: UACC-62
[10] = tested on: SF-539
[11] = tested on: SF-295
[12] = tested on: HCT-116
[13] = tested on: Hs-578T
[14] = tested on: OVCAR-8
[15] = tested on: NCI/ADR-RES
[16] = tested on: NCI-H23
[17] = tested on: CCRF-CEM
[18] = tested on: NCI-H226
[19] = tested on: EKVX
[20] = tested on: NCI-H460

Row | Compound | GI50 [1] | GI50 [2] | GI50 [3] | GI50 [4] | GI50 [5] | GI50 [6] | GI50 [7] | GI50 [8] [µM] | GI50 [9] | GI50 [10] | GI50 [11] | GI50 [12] | GI50 [13] | GI50 [14] | GI50 [15] | GI50 [16] | GI50 [17] | GI50 [18] | GI50 [19] | GI50 [20]
1 | CN(C)c1ccc(/C=c2\c3ccccc3n3c2cc(-c2ccccc2)[n+]3C)cc1 | 0.061 µM (active) | 1.35 µM (inactive) | 0.0193 µM (active) | 0.153 µM (active) | 0.222 µM (active) | 0.07 µM (active) | 0.0283 µM (active) | 1.2 | 0.365 µM (active) | 0.0406 µM (active) | 0.213 µM (active) | 0.0853 µM (active) | 0.0335 µM (active) | 0.0726 µM (active) | 4.45 µM (inactive) | 0.0582 µM (active) | 0.0635 µM (active) | < 0.01 µM (active) | 0.32 µM (active) | 0.103 µM (active)
2 | CN(C)c1ccc(/C=C/C(=O)c2ccc(O)cc2)cc1 | 5.2 µM (inactive) | 15.1 µM (inactive) | 2.71 µM (inactive) | 8.45 µM (inactive) | 22.3 µM (inactive) | 1.7 µM (inactive) | 1.79 µM (inactive) | 2.94 | 4.08 µM (inactive) | 3.2 µM (inactive) | 4.58 µM (inactive) | 3.69 µM (inactive) | 17.4 µM (inactive) | 7.29 µM (inactive) | 2.98 µM (inactive) | 11.3 µM (inactive) | 2.83 µM (inactive) | 56.4 µM (inactive) | 31.3 µM (inactive) | 4.72 µM (inactive)
3 | Cc1ccc(-c2nnc(-c3ccc4ccccc4c3)o2)cc1 | 6.7 µM (inactive) | > 100 µM (inactive) | 69.7 µM (inactive) | 5.38 µM (inactive) | 25.8 µM (inactive) | 7.26 µM (inactive) | 2.93 µM (inactive) | > 96.8 | 13 µM (inactive) | 19.6 µM (inactive) | 36.2 µM (inactive) | 23.6 µM (inactive) | 23 µM (inactive) | 12.4 µM (inactive) | 12.7 µM (inactive) | > 100 µM (inactive) | 3.55 µM (inactive) | 25.2 µM (inactive) | 40.2 µM (inactive) | 83 µM (inactive)
4 | CCOC(=O)/C(C(=O)Nc1cccc(C(F)(F)F)c1)=C(/N)N1CCCC1 | 23.4 µM (inactive) | > 100 µM (inactive) | > 100 µM (inactive) | > 100 µM (inactive) | 42.4 µM (inactive) | > 100 µM (inactive) | > 100 µM (inactive) | > 100 | > 100 µM (inactive) | 20.1 µM (inactive) | 42.2 µM (inactive) | > 100 µM (inactive) | 27.2 µM (inactive) | 38 µM (inactive) | > 100 µM (inactive) | > 100 µM (inactive) | > 100 µM (inactive) | 29.2 µM (inactive) | > 100 µM (inactive) | > 100 µM (inactive)
5 | CC(C)C1(C)N=C(C(F)(F)F)c2cc(C(=O)C(F)(F)F)c3ccccc3c2N1 (stereo not given) | 2.31 µM (inactive) | 3.69 µM (inactive) | 2.3 µM (inactive) | 3 µM (inactive) | 2.73 µM (inactive) | 3.96 µM (inactive) | 4.62 µM (inactive) | 3.23 | 4.33 µM (inactive) | 6.5 µM (inactive) | 3.38 µM (inactive) | 2.94 µM (inactive) | 2.5 µM (inactive) | 4.17 µM (inactive) | 2.78 µM (inactive) | 2.77 µM (inactive) | 15.8 µM (inactive) | 12.9 µM (inactive) | 4.91 µM (inactive) | 4.41 µM (inactive)
6 | CN1CCN(c2n[nH]c(=O)c3c2nnn3C2CCCCC2)CC1 | > 100 µM (inactive) | > 100 µM (inactive) | > 100 µM (inactive) | > 100 µM (inactive) | > 100 µM (inactive) | > 100 µM (inactive) | > 100 µM (inactive) | > 100 | > 100 µM (inactive) | > 100 µM (inactive) | > 100 µM (inactive) | > 100 µM (inactive) | > 100 µM (inactive) | > 100 µM (inactive) | > 100 µM (inactive) | > 100 µM (inactive) | > 100 µM (inactive) | > 100 µM (inactive) | > 100 µM (inactive) | > 100 µM (inactive)
7 | c1ccc(/C(=N/Nc2ccccn2)c2cccnn2)cc1 | 2.78 µM (inactive) | 5.37 µM (inactive) | 0.441 µM (active) | 5.4 µM (inactive) | 2.57 µM (inactive) | 1.47 µM (inactive) | 3.61 µM (inactive) | 0.824 | 3.44 µM (inactive) | 2.74 µM (inactive) | 3.11 µM (inactive) | 2.28 µM (inactive) | 11.8 µM (inactive) | 1.87 µM (inactive) | 2.17 µM (inactive) | 2.91 µM (inactive) | 0.767 µM (active) | 1.07 µM (active) | 1.74 µM (inactive) | 1.34 µM (inactive)
8 | C=C(C)[C@@H]1CC=C(CO)CC1 [PERILLYL ALCOHOL] | 56 µM (inactive) | 753 µM (inactive) | 344 µM (inactive) | 324 µM (inactive) | > 10 µM (inactive) | 30.5 µM (inactive) | 50.1 µM (inactive) | 167 | 236 µM (inactive) | 501 µM (inactive) | 266 µM (inactive) | 96.2 µM (inactive) | > 10 µM (inactive) | 145 µM (inactive) | > 10 µM (inactive) | 465 µM (inactive) | 101 µM (inactive) | 251 µM (inactive) | 617 µM (inactive) | 454 µM (inactive)
